Assay results from ChEMBL document CHEMBL1201862, “PubChem BioAssay data set” (2004).
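Interpolation was linear, between the two tested concentrations surrounding the appropriate level; five concentrations were tested over 48 hours in 96-well plates. Abbreviation: GI50, concentration required for 50% inhibition of growth.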 Active and inactive are the calls of the source. Cut-off read from the data, not from the text of the source: active = GI50 up to about 1.1 µM and inactive = higher.

What was measured:
Test in all cases: DTP human tumour cell line panel, 48 h
RXF 393 = system: RXF 393
NCI-H522 = system: NCI-H522
KM12 = system: KM12
SNB-19 = system: SNB-19
SK-MEL-5 = system: SK-MEL-5
Hs-578T = system: Hs-578T
UACC-257 = system: UACC-257
SK-OV-3 = system: SK-OV-3
MDA-MB-231 = system: MDA-MB-231
U-251 = system: U-251
PC-3 = system: PC-3
HL-60 = system: HL-60
LOX IMVI = system: LOX IMVI
HCT-116 = system: HCT-116
SF-268 = system: SF-268
OVCAR-4 = system: OVCAR-4
OVCAR-8 = system: OVCAR-8
786-0 = system: 786-0
NCI/ADR-RES = system: NCI/ADR-RES
NCI-H460 = system: NCI-H460

Row | SMILES | GI50 (RXF 393) | GI50 (NCI-H522) | GI50 (KM12) | GI50 (SNB-19) | GI50 (SK-MEL-5) | GI50 (Hs-578T) | GI50 (UACC-257) | GI50 (SK-OV-3) | GI50 (MDA-MB-231) | GI50 (U-251) | GI50 (PC-3) | GI50 (HL-60) | GI50 (LOX IMVI) | GI50 (HCT-116) | GI50 (SF-268) | GI50 (OVCAR-4) | GI50 (OVCAR-8) | GI50 (786-0) | GI50 (NCI/ADR-RES) | GI50 (NCI-H460)
1 | COC1=CC(=O)C(O)=C(C[C@@]2(C)[C@@H]3CCC[C@H](COC(=O)CCCCCNC(=O)OC(C)(C)C)[C@@]3(C)CC[C@@H]2C)C1=O | 3.67 µM (inactive) | 3.05 µM (inactive) | > 10 µM (inactive) | 3.77 µM (inactive) | 3.77 µM (inactive) | 4.52 µM (inactive) | > 10 µM (inactive) | > 10 µM (inactive) | > 10 µM (inactive) | 3.9 µM (inactive) | > 10 µM (inactive) | 3.04 µM (inactive) | > 10 µM (inactive) | 6.55 µM (inactive) | 5.85 µM (inactive) | > 10 µM (inactive) | 6.73 µM (inactive) | > 10 µM (inactive) |  | 
2 | CCOc1ccccc1Nc1ccc(N)cc1S(=O)(=O)O | > 100 µM (inactive) | > 100 µM (inactive) | > 100 µM (inactive) | > 100 µM (inactive) | > 100 µM (inactive) | > 100 µM (inactive) | > 100 µM (inactive) |  | > 100 µM (inactive) | > 100 µM (inactive) | > 100 µM (inactive) |  | > 100 µM (inactive) | > 100 µM (inactive) | > 100 µM (inactive) | > 100 µM (inactive) |  | > 100 µM (inactive) | > 100 µM (inactive) | > 100 µM (inactive)
3 | CCC(=O)Nc1ncnc2ncn(C(=O)CC)c12 | > 100 µM (inactive) | > 100 µM (inactive) | > 100 µM (inactive) | > 100 µM (inactive) |  | > 100 µM (inactive) | > 100 µM (inactive) | > 100 µM (inactive) | > 100 µM (inactive) | > 100 µM (inactive) | > 100 µM (inactive) |  | > 100 µM (inactive) | > 100 µM (inactive) | > 100 µM (inactive) | > 100 µM (inactive) | > 100 µM (inactive) | > 100 µM (inactive) | > 100 µM (inactive) | > 100 µM (inactive)
4 | O=C(CC(C(=O)c1ccsc1)c1ccccc1)c1cccs1 (centres undefined) | 59.3 µM (inactive) | 41.6 µM (inactive) | 26.8 µM (inactive) |  | 43.2 µM (inactive) | 58.7 µM (inactive) | 61 µM (inactive) | > 100 µM (inactive) | 22.2 µM (inactive) | 62.2 µM (inactive) |  | 41.1 µM (inactive) |  | 44.5 µM (inactive) | > 100 µM (inactive) | 55 µM (inactive) | 58.1 µM (inactive) | > 100 µM (inactive) | 22.5 µM (inactive) | 27.1 µM (inactive)
5 | Cc1cc(=O)oc2cc(OCc3c(F)cccc3Cl)ccc12 | 7.23 µM (inactive) | 11.1 µM (inactive) | 1.99 µM (inactive) | 20.9 µM (inactive) | 3.66 µM (inactive) | 21.9 µM (inactive) | 78.5 µM (inactive) |  | 4.07 µM (inactive) | 8.85 µM (inactive) | 3.56 µM (inactive) | 3.76 µM (inactive) | 11.5 µM (inactive) | 4.41 µM (inactive) | 21.4 µM (inactive) | 48.4 µM (inactive) | > 100 µM (inactive) | 11.6 µM (inactive) |  | 
6 | Cc1nc(N)c(N2CCN(Cc3ccccc3)CC2)c(O)n1 |  | > 100 µM (inactive) | > 100 µM (inactive) | > 100 µM (inactive) |  | > 100 µM (inactive) | > 100 µM (inactive) |  | > 100 µM (inactive) | > 100 µM (inactive) | > 100 µM (inactive) | > 100 µM (inactive) | > 100 µM (inactive) | > 100 µM (inactive) | > 100 µM (inactive) |  | > 100 µM (inactive) | > 100 µM (inactive) | > 100 µM (inactive) | > 100 µM (inactive)
7 | Cn1c2ccc(Cl)cc2c2ccc3c(c21)C(=O)C=CC3=O |  | > 10 µM (inactive) | > 10 µM (inactive) | > 10 µM (inactive) | > 10 µM (inactive) | > 10 µM (inactive) | > 10 µM (inactive) | > 10 µM (inactive) | > 10 µM (inactive) | > 10 µM (inactive) | > 10 µM (inactive) | 8.49 µM (inactive) | > 10 µM (inactive) | > 10 µM (inactive) | > 10 µM (inactive) | > 10 µM (inactive) | > 10 µM (inactive) | > 10 µM (inactive) | > 10 µM (inactive) | > 10 µM (inactive)
8 | O=C1c2ccccc2C(=O)c2c(NCCNC(=O)C3CCCN3)ccc(NCCNC(=O)C3CCCN3)c21 (centres undefined) |  | 19.9 µM (inactive) | 23.2 µM (inactive) | 44.1 µM (inactive) | 88.5 µM (inactive) | 37.1 µM (inactive) | > 100 µM (inactive) | > 100 µM (inactive) | 23.7 µM (inactive) | 37.2 µM (inactive) | 67.9 µM (inactive) | 31 µM (inactive) | 0.0415 µM (active) | 2.65 µM (inactive) | 34.1 µM (inactive) | > 100 µM (inactive) | 33.9 µM (inactive) | 0.219 µM (active) | > 100 µM (inactive) | 
9 | Cc1nc2c(C)ccc([N+](=O)[O-])c2c(NCCCN(C)C)c1C | 58.7 µM (inactive) | 26.9 µM (inactive) | > 100 µM (inactive) | > 100 µM (inactive) | 14.2 µM (inactive) | 63 µM (inactive) | 23.3 µM (inactive) | > 100 µM (inactive) |  | > 57.8 µM (inactive) | 11.7 µM (inactive) | 24.9 µM (inactive) | 44.3 µM (inactive) | 74.6 µM (inactive) | > 100 µM (inactive) | > 100 µM (inactive) | > 46.6 µM (inactive) | > 90.8 µM (inactive) | > 100 µM (inactive) | 57 µM (inactive)
10 | O=C1c2ccccc2NC2C(O)c3ccccc3N12 (centres undefined) | > 100 µM (inactive) | 4.09 µM (inactive) | 35.2 µM (inactive) | > 100 µM (inactive) | 52.7 µM (inactive) | 25.1 µM (inactive) | 15.3 µM (inactive) | > 100 µM (inactive) | > 100 µM (inactive) | 30 µM (inactive) | 35.4 µM (inactive) |  | 36.6 µM (inactive) | 30.5 µM (inactive) | > 100 µM (inactive) | 25.5 µM (inactive) | 49.1 µM (inactive) | > 100 µM (inactive) | 40.4 µM (inactive) | 13.2 µM (inactive)
11 | CC1(C)OCN(c2ccc(Cl)cc2)Cn2c1nc1ccccc12 | 62.1 µM (inactive) | 12.6 µM (inactive) | 1.61 µM (inactive) | > 71.3 µM (inactive) | 0.571 µM (active) |  | 39.1 µM (inactive) | > 100 µM (inactive) | 3.18 µM (inactive) | 22.3 µM (inactive) | 1.94 µM (inactive) | 11.2 µM (inactive) | 3.21 µM (inactive) | 15.3 µM (inactive) | 15.8 µM (inactive) | 51.4 µM (inactive) | 69 µM (inactive) | > 89.9 µM (inactive) | 27 µM (inactive) | > 21.7 µM (inactive)
12 | CN(C)C(=S)N/N=C\C(=N/NC(=S)N(C)C)c1ccccc1 | 7.36 µM (inactive) | 3.15 µM (inactive) | 15 µM (inactive) | 17 µM (inactive) | 9.84 µM (inactive) | 4.57 µM (inactive) | > 23.4 µM (inactive) | 12.3 µM (inactive) | 19.3 µM (inactive) | 3.96 µM (inactive) |  |  | 9.02 µM (inactive) | 3.52 µM (inactive) | 4.14 µM (inactive) | 5.74 µM (inactive) | 4.82 µM (inactive) | 7.33 µM (inactive) | 2.98 µM (inactive) | 1.36 µM (inactive)
13 | COc1cccc(/N=N/C(=N/NC(=O)c2ccc(C)cc2)c2ccc(N(CCC#N)CCC#N)cc2OC)c1 | > 100 µM (inactive) | > 100 µM (inactive) | > 100 µM (inactive) | > 100 µM (inactive) | > 100 µM (inactive) | > 100 µM (inactive) | 7.14 µM (inactive) | > 100 µM (inactive) | > 100 µM (inactive) | > 100 µM (inactive) | > 100 µM (inactive) |  | > 100 µM (inactive) | > 100 µM (inactive) | > 100 µM (inactive) | > 100 µM (inactive) | > 100 µM (inactive) | > 100 µM (inactive) | > 100 µM (inactive) | 3.76 µM (inactive)
14 | CN(C)/C=C/C=C(/C=N/S(=O)(=O)C(F)(F)F)C1C=CN(S(=O)(=O)C(F)(F)F)C=C1 |  | 21.6 µM (inactive) | 25 µM (inactive) |  | 23.5 µM (inactive) | 69.2 µM (inactive) | 23.1 µM (inactive) | 28.4 µM (inactive) | 31.1 µM (inactive) | 37.6 µM (inactive) |  | 19.8 µM (inactive) | 42.8 µM (inactive) | 29.2 µM (inactive) | 48.5 µM (inactive) | 15.8 µM (inactive) | 37.7 µM (inactive) | 45.8 µM (inactive) | 30.3 µM (inactive) | 24.3 µM (inactive)
15 | O=C(O)C1OC1C(=O)O (centres undefined) | > 100 µM (inactive) | > 100 µM (inactive) | > 100 µM (inactive) | > 100 µM (inactive) | > 100 µM (inactive) | > 100 µM (inactive) | > 100 µM (inactive) | > 100 µM (inactive) | > 100 µM (inactive) | > 100 µM (inactive) |  |  | > 100 µM (inactive) | > 100 µM (inactive) | > 100 µM (inactive) | > 100 µM (inactive) | > 100 µM (inactive) | > 100 µM (inactive) | > 100 µM (inactive) | > 100 µM (inactive)
